{"source": "patent US11833129B2", "about": "“Thiophene compound for treatment of exfoliating glaucoma” (Avoscience, LLC, priority 2013, dated 2023)", "key": {"[1]": {"tested_on": "Bacillus subtilis (Ehrenberg) Cohn", "settings": "cited from earlier work"}, "[2]": {"tested_on": "Staphylococcus aureus Rosenbach", "settings": "cited from earlier work"}, "[3]": {"tested_on": "focal adhesion kinase (FAK) [Tyr576] phosphorylation", "experiment": "western blot of FAK[Tyr576] phosphorylation in Hs578T cells", "format": "cell-based, human", "settings": "5 or 10 μl Formula I(n)/10 ml media, 3 days", "excerpt": "FIG. 5 is a western blot showing the inhibition of the phosphorylation of focal adhesion kinase (FAK) in Hs578T cells treated with Formula I(n). Antibodies that detect the FAK protein that has been phosphorylated on pTyr576 were used at a dilution of 1:1000 (rabbit anti-FAK[pTyr576] from Biosource Inc., Camarillo, Calif., USA).\nIt has previously been shown that reduced migratory ability of various invasive breast tumor cells, including MDA-MB231, Hs578T (Payne S L, Fogelgren B, Hess A R, Seftor E A, Fong S F T, Csiszar K, Hendrix M J C, and Kirschmann D A. Lysyl oxidase regulates breast cancer cell migration and adhesion through a hydrogen peroxide-mediated mechanism. Cancer Res. 65:11429-36, 2005), and astrocytoma cells (Laczko R, Szauter K M, Jansen M K, Hollosi P, Muranyi M, Molnar J, Fong K S K, Hinek A, Csiszar K. Active lysyl oxidase (LOX) correlates with FAK/paxillin activation and migration in invasive astrocytes. Neuropathol Appl Neurobiol. 33:631-43, 2007) was due to reduced activation of Focal Adhesion Kinase (FAK) and diminished SRC and/or Paxillin signaling. In order to determine the status of FAK activation in Formula I(n) treated cells, the phosphorylation status of FAK[Tyr576] in Hs578T cells treated with 5 and 10 μl Formula I(n) was analyzed.\nIn these experiments, Hs578T cells were cultured in standard DMEM, 1× Antibiotics and 10% FBS. […]"}, "[4]": {"tested_on": "preconfluent neonatal foreskin fibroblast cells", "experiment": "cytoskeletal reorganization, phalloidin/propidium iodide staining", "format": "cell-based", "settings": "pre-confluent fibroblasts; 5 or 10 μl Formula I(n); 24 hours; compared to controls", "procedure": "(§1) FIG. 4A is a micrograph of preconfluent neonatal foreskin fibroblast cells that have not been treated with Formula I(n). After 24 hours of mock treatment, cells were stained with phalloidin (actin-green) and propidium iodide (nuclei-red). FIG. 4B is a micrograph of preconfluent neonatal foreskin fibroblast cells that have been treated with 5 μl/10 ml Formula I(n). After 24 hours of treatment, cells were stained with phalloidin (actin-green) and propidium iodide (nuclei-red). FIG. 4C is a micrograph of preconfluent neonatal foreskin fibroblast cells that have been treated with 10 μl/10 ml Formula I(n). After 24 hours of treatment, cells were stained with phalloidin (actin-green) and propidium iodide (nuclei-red). FIG. 4D is a micrograph of confluent MDA-MB231 breast cancer cells that have not been treated with Formula I(n). After 24 hours of mock treatment, cells were stained with phalloidin (actin-green) and propidium iodide (nuclei-red). FIG. 4E is a micrograph of confluent MDA-MB231 breast cancer cells that have been treated with 5 μl/10 ml Formula I(n). After 24 hours of treatment, cells were stained with phalloidin (actin-green) and propidium iodide (nuclei-red). FIG. 4F is a micrograph of confluent MDA-MB231 breast cancer cells that have been treated with 10 μl/10 ml Formula I(n). After 24 hours of treatment, cells were stained with phalloidin (actin-green) and propidium iodide (nuclei-red). FIG. 4G is a micrograph of preconfluent MDA-MB231 breast cancer cells that have not been treated with Formula I(n). After 24 hours of mock treatment, cells were stained with phalloidin (actin-green) and propidium iodide (nuclei-red). FIG. 4H is a micrograph of preconfluent MDA-MB231 breast cancer cells that have been treated with 5 μl/10 ml Formula I(n). After 24 hours of treatment, cells were stained with phalloidin (actin-green) and propidium iodide (nuclei-red).\nFormula I(n) was next analyzed for its ability to induce cytoskeletal reorganization. […]"}, "[5]": {"tested_on": "foreskin fibroblasts (Clonetics)", "experiment": "in vitro scratch assay, fibroblast migration", "format": "cell-based", "procedure": "FIG. 2A is a micrograph of an in vitro scratch assay using fibroblasts showing the migration of fibroblasts at 0 hours without treatment of Formula I(n). Confluent cultures of foreskin fibroblasts (Clonetics) were scratched with the tip of a 200 μl pipet tip, rinsed once with PBS and media was changed to serum free media containing 0 μl/10 ml Formula I(n). Pictures were taken at the indicated time (0, 12, or 24 hours) following scratching and the distance between the migrating lips were measured in pixels. FIG. 2B is a micrograph of an in vitro scratch assay using fibroblasts showing the migration of fibroblasts at 0 hours upon treatment with 5 μl/10 ml Formula I(n). […]\nFIG. 3 is a graph of the distance between the migrating lips (as measured in pixels) vs. the time (hours) after administration of Formula I(n). […]\nConfluent cultures of foreskin fibroblasts (Clonetics) were scratched with the tip of a 200 μl pipet tip, rinsed once with PBS and media was changed to serum free media containing 0 (FIG. 2A, 2D, 2G) 5 (FIG. 2B, 2E, 2H) or 10 (FIG. 2C, 2F) μl/10 ml Formula I(n). Pictures were taken at 0 (FIG. 2A, 2B, 2C), 12 (FIG. 2D, 2E, 2F) or 24 (FIG. 2G, 2H) hours following scratching and the distance between the migrating lips were measured in pixels. FIG. 3 is a graph of the distance between the migrating lips (as measured in pixels) vs. the time (hours) after administration of Formula I(n)."}, "[6]": {"tested_on": "MDA-MB231 breast cancer cells", "experiment": "cytoskeletal reorganization and cell density, phalloidin/propidium iodide staining", "format": "cell-based, human", "settings": "24 hours", "procedure": "as §1, with “After 24 hours of treatment, cells were stained with phalloidin (actin-green) and propidium iodide (nuclei-red). FIG. 4G is a micrograph of preconfluent MDA-MB231 breast cancer cells that have not been treated with Formula I(n). After 24 hours of mock treatment, cells were stained with phalloidin (actin-green) and propidium iodide (nuclei-red). FIG. 4H is a micrograph of preconfluent MDA-MB231 breast cancer cells that have been treated with 5 μl/10 ml Formula I(n). After 24 hours of treatment, cells were stained with phalloidin (actin-green) and propidium iodide (nuclei-red).” left out"}, "[7]": {"tested_on": "MDA-MB231 invasive breast tumor cells", "experiment": "Membrane Invasion Culture System (MICS) chamber tumor cell migration", "format": "cell-based, human", "settings": "5 or 10 μl/10 ml Formula I(n), 24 hours, vs untreated and methanol controls", "procedure": "FIG. 1A is graph of cell migration using the breast cancer cell line MDA-MB231 for cells treated with 0 μl/10 ml, 5 μl/10 ml and 10 μl/10 ml Formula I(n). The effect of Formula I(n) on the migration of MDA-MB231 invasive breast tumor cells was tested using the Membrane Invasion Culture System (MICS) chamber. The Membrane Invasion Culture System (MICS) chamber was assembled with Crosstex 10 μm polycarbonate membrane pre-soaked in gelatin for 12 hours. The lower wells were fully loaded with DMEM supplemented with 10% FBS and 0, 5, 10 μl/10 ml Formula I(n) diluted in 0-20 μl/10 ml methanol. The upper wells were loaded with 1 ml serum-free phenol-red-free media and corresponding Formula I(n)/methanol solution. 100,000 cells/well were loaded and the chamber was incubated at 37° C. for 24 hours. […] The membrane was rinsed in water, placed onto a microscope slide pre-treated with immersion oil, covered with a coverslip and cells were counted under a light microscope. Each sample was measured in triplicate. […]\nThe Membrane Invasion Culture System (MICS) chamber was assembled with Crosstex 10 μm polycarbonate membrane pre-soaked in gelatin for 12 hours. […] The membrane was rinsed in water, placed onto a microscope slide pre-treated with immersion oil, covered with a coverslip and cells were counted under a light microscope. Each sample was measured in triplicate."}, "[8]": {"tested_on": "Hs578T invasive breast tumor cells", "experiment": "Membrane Invasion Culture System (MICS) chamber tumor cell migration", "format": "cell-based, human", "settings": "5 or 10 μl/10 ml Formula I(n), 24 hours, vs untreated and methanol controls"}, "silkworm larvae, B. mori": {"tested_on": "silkworm larvae, B. mori", "settings": "concentrations in the diet up to 300 μg/g; cited from earlier work"}}, "data": [{"smiles": "C=CCCCCCCCCCCCc1ccco1", "note": "[2-(trideca-12-enyl)furan]", "values": [{"measurement": "growth of bacteria", "setting": "[1]", "value": "inhibited growth"}, {"measurement": "growth of bacteria", "setting": "[2]", "value": "inhibited growth"}]}, {"smiles": "CCCCC/C=C\\C/C=C\\CCCCCCCc1ccco1", "note": "[Formula I(n)]", "values": [{"measurement": "FAK[Tyr576] phosphorylation", "setting": "[3]", "value": "concentration dependent decrease"}, {"measurement": "filopodia", "setting": "[4]", "value": "numerous filopodia"}, {"measurement": "staining at adhesion sites", "setting": "[4]", "value": "reduced staining"}, {"measurement": "staining intensity of the actin cytoskeleton", "setting": "[4]", "value": "concentration dependent increase"}, {"measurement": "migration of fibroblasts (distance between the migrating lips)", "setting": "[5]; 5 or 10 μl/10 ml Formula I(n), 12 and 24 hours after scratching, serum free media", "value": "reduced migration"}, {"measurement": "migration of fibroblasts (distance between the migrating lips)", "setting": "[5]; higher Formula I(n) concentration (10 μl/10 ml)", "value": "almost completely diminished"}, {"measurement": "tumor cell morphology", "setting": "[6]; 5 or 10 μl Formula I(n)", "value": "elongated, spindle shaped"}, {"measurement": "cell densities (tumor cell proliferation)", "setting": "[6]; both Formula I(n) concentrations, both stages of cell confluency", "value": "significantly reduced"}, {"measurement": "tumor cell migration", "setting": "[7]", "value": "significantly inhibited"}, {"measurement": "tumor cell migration", "setting": "[8]", "value": "significantly inhibited"}]}, {"smiles": "CCCCC/C=C\\C/C=C\\CCCCCCCc1ccco1", "note": "[2-(8Z, 11Z-heptadecadienyl)furan, 2-(8Z,11Z-heptadecadienyl)furan]", "values": [{"measurement": "activity against silkworm larvae", "setting": "silkworm larvae, B. mori", "value": "no activity"}]}]}
